We go through 25 molecules from US8044069B2, “Compounds as calcium channel blockers” (Abbott Laboratories, priority 2008, dated 2011).

One experiment deals with human Cav2.2 (Homo sapiens, UniProt Q00975). Nature of the experiment: Assessment of calcium channel activity using FLIPR (Ca2+ influx in IMR32 cells). The conditions noted are these: IMR32 cells endogenously expressing human Cav2.2; 60 minute pre-incubation; 2 μM nifedipine; depolarized with 80 mM KCl, 5 mM CaCl2. It counts as cell-based. A digest of the protocol: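 IMR32 cells were dye-loaded and pre-incubated 60 min with compound (10 μM to 0.1 nM) in 1.3 mM CaCl2 plus 2 μM nifedipine to block L-type channels. Cells were then depolarized with 80 mM KCl while Ca2+ was raised to 5 mM, and FLIPR read the influx. IC50 came from a sigmoidal fit of % inhibition versus the no-inhibitor control.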

The test system of the next experiment is Sprague Dawley rats. Nature of the experiment: Capsaicin induced secondary mechanical hyperalgesia model. It is filed as in vivo. The following applies: Rattus norvegicus, po, 1 h; 30 mg/kg p.o., 60 minutes before testing; secondary mechanical hyperalgesia 180 minutes after capsaicin; von Frey paw withdrawal threshold. On the procedure: (ii) In Vivo Data—Capsaicin Induced Secondary Mechanical Hyperalgesia Model:
Sprague Dawley rats were briefly restrained, and capsaicin was administered at 10 μg in 10 μL of vehicle by intraplantar injection into the center of the right hind paw. Secondary mechanical hyperalgesia (SMH) was measured at the heel away from the site of injection 180 minutes following capsaicin exposure. Compounds and gabapentin (positive control), were administered p.o. 60 minutes before testing (2 hours after capsaicin) or i.p. 30 minutes before testing (2.5 hours after capsaicin). SMH was measured using calibrated von Frey filaments (Stoelting, Woodale, Ill.). Following the 1 hour habituation in the testing room, rats were moved to individual plexiglass chambers that sit on top of a wire mesh to allow for access for stimulation of the plantar surface of the hind paws. Rats were allowed to acclimate to the new chambers for 15 minutes before the onset of testing. The paw withdrawal threshold was determined by increasing and decreasing stimulus intensity (force: g) and calculated using Dixon's up-down method (Chaplan, S. R.; Bach, F. W.; Pogrel, J. W.; Chung, J. M.; Yaksh, T. L.; Quantitative assessment of tactile allodynia in the rat paw. J. Neuroscience Methods 1994, 53(1), 55-63). The filaments (maximum force of 15.0 g) were held in place for 8 seconds or until there was a withdrawal response from the mechanical stimulation.

pIC50: −log10 of the molar value.

Sequence of human Cav2.2 (Q00975 whole entry): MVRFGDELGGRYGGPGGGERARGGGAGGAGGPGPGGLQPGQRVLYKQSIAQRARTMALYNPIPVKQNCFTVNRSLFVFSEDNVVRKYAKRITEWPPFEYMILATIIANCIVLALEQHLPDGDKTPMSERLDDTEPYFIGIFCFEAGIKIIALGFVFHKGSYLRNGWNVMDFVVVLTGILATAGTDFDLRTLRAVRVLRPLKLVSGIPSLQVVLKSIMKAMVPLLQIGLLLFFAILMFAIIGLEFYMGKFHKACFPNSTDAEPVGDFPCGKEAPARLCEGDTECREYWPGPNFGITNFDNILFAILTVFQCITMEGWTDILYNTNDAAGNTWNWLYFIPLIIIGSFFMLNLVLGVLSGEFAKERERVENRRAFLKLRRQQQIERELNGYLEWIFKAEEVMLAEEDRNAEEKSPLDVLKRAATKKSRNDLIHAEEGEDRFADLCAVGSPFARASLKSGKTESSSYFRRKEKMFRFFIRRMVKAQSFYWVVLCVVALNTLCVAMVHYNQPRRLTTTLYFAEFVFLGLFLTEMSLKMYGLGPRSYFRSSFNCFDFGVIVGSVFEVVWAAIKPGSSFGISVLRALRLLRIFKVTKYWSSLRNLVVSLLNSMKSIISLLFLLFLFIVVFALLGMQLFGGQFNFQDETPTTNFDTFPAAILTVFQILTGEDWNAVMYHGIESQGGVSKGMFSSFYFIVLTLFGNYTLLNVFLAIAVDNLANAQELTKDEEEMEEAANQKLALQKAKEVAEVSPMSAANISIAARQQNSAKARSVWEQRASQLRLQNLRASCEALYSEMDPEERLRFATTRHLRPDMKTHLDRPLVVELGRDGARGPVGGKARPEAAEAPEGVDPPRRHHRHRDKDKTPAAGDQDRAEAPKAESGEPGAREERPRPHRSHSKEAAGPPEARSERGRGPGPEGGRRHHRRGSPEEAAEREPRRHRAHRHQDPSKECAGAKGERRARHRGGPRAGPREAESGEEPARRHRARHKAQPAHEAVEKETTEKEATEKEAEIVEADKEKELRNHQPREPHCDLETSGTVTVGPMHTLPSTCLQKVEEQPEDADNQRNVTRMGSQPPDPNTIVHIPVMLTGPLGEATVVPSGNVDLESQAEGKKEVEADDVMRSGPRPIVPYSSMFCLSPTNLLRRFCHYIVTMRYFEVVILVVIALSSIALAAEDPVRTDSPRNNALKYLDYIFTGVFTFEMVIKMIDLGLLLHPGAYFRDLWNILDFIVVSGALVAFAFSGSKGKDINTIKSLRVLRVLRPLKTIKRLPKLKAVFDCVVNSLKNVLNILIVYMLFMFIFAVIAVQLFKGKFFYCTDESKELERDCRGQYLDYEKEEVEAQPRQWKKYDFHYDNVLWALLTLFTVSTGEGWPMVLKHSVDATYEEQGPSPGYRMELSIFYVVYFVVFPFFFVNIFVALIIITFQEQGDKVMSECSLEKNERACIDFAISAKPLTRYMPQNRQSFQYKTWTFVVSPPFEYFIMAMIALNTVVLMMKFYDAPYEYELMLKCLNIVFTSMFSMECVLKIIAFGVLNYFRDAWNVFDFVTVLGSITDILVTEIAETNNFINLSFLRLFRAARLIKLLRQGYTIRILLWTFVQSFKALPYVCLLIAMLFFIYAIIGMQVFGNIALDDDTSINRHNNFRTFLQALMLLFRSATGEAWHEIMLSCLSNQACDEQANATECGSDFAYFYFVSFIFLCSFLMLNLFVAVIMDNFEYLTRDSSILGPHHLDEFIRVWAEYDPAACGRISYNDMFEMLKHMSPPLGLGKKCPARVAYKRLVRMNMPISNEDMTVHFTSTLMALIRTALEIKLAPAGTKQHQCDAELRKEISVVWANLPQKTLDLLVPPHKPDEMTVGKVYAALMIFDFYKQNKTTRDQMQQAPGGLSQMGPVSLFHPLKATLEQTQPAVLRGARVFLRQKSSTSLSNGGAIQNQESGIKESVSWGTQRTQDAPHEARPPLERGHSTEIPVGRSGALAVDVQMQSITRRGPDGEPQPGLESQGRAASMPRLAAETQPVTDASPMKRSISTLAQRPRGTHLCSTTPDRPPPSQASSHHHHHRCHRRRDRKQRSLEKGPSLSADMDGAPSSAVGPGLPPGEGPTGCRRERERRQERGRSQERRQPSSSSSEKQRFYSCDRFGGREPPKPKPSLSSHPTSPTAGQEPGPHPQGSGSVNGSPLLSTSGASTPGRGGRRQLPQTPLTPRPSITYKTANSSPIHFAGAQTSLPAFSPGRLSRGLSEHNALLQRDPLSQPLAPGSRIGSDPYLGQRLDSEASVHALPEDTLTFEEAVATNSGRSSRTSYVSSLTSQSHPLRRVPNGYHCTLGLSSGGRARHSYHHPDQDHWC
Sequence of human Cav2.2 (P54289 25-951 partner limits assumed): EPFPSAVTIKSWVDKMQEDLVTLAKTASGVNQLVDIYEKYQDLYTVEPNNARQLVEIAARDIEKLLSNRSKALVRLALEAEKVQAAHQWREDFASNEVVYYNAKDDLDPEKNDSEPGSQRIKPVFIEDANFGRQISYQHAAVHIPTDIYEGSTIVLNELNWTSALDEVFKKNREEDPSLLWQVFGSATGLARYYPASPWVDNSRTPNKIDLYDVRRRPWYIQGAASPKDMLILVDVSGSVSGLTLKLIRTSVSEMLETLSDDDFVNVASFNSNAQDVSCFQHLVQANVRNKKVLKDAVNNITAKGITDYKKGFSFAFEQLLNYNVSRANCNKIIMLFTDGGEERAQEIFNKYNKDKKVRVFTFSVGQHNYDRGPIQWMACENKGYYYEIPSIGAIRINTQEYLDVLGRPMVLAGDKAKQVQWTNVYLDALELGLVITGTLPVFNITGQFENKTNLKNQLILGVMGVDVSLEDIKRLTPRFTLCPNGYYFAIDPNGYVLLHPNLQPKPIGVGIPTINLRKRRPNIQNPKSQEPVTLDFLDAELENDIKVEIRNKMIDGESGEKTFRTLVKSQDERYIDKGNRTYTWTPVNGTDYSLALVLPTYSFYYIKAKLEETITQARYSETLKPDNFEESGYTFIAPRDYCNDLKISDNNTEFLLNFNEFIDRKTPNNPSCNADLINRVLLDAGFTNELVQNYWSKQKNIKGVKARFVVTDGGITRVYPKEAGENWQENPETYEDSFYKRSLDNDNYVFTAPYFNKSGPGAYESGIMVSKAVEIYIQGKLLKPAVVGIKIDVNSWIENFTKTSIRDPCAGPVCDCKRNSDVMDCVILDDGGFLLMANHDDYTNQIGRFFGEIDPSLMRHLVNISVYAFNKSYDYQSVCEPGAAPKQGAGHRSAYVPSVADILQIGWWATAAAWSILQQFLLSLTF
Sequence of human Cav2.2 (P54289 952-1103 partner limits assumed): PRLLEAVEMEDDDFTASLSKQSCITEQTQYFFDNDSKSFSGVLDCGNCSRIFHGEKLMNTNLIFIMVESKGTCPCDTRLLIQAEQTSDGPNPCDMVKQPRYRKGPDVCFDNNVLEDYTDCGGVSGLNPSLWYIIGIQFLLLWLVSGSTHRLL
Sequence of human Cav2.2 (P54284 whole entry partner): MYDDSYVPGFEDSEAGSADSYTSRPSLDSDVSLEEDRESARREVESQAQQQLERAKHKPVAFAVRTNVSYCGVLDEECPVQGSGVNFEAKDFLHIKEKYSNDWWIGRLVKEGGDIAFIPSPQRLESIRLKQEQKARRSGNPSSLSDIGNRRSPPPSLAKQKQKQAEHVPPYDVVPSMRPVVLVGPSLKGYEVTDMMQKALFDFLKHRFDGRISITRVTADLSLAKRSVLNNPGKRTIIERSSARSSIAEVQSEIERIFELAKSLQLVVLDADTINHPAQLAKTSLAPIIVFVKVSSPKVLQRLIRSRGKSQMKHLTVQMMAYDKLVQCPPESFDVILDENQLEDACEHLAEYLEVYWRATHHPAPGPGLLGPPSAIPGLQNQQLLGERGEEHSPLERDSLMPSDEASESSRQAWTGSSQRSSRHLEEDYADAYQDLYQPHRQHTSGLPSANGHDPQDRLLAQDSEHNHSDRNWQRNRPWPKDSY

As to `O=C(CN1CCCC(c2ccccc2)(c2ccccc2)C1=O)N1CCC(c2ccccc2)(c2ccccc2)CC1` [Example 72, 1-[2-(4,4-diphenylpiperidin-1-yl)-2-oxoethyl]-3,3-diphenylpiperidin-2-one], the pIC50 on human Cav2.2 is 6.18. The molecule also yielded an inhibition in vivo at 30 mg/kg in the experiment on Sprague Dawley rats of 78%. For the molecule `O=C(CN1CCC(c2ccccc2)(c2ccccc2)C1=O)N1CCC(c2ccccc2)(c2ccccc2)C1` [Example 17, 1-[2-(3,3-diphenylpyrrolidin-1-yl)-2-oxoethyl]-3,3-diphenylpyrrolidin-2-one], the pIC50 on human Cav2.2 is 6.11. The same molecule displayed an inhibition in vivo at 30 mg/kg with Sprague Dawley rats of 50%. On to `O=C(CN1CCC(c2ccccc2)(c2ccccc2)C1=O)NC1CCN(Cc2cccc(C(F)(F)F)c2)CC1` [Example 41, 2-(2-oxo-3,3-diphenylpyrrolidin-1-yl)-N-{1-[3-(trifluoromethyl)benzyl]piperidin-4-yl}acetamide], for which, on human Cav2.2, the negative logarithm of the IC50 (pIC50) was 6.11. In addition, at 30 mg/kg the inhibition in vivo in the experiment on Sprague Dawley rats was 75%. In the same order, the values of `O=C(CN1CCC(c2ccccc2)(c2ccccc2)C1=O)N1CCN(C(c2ccccc2)c2ccccc2)C(=O)C1` [Example 28, 1-benzhydryl-4-[(2-oxo-3,3-diphenylpyrrolidin-1-yl)acetyl]piperazin-2-one] are 5.96 and 60%.

On to `O=C(CN1CCC(c2ccccc2)(c2ccccc2)C1=O)N1CCN(C(c2ccc(F)cc2)c2ccc(F)cc2)CC1` [Example 45, 1-(2-{4-[bis(4-fluorophenyl)methyl]piperazin-1-yl}-2-oxoethyl)-3,3-diphenylpyrrolidin-2-one], for which the pIC50 on human Cav2.2 was 6.37. Further, testing at 30 mg/kg in the experiment on Sprague Dawley rats gave an inhibition in vivo of 51%. On to `Nc1ccc(-c2noc(CN3CCC(c4ccccc4)(c4ccccc4)C3=O)n2)cn1` [Example 234, 1-{[3-(6-aminopyridin-3-yl)-1,2,4-oxadiazol-5-yl]methyl}-3,3-diphenylpyrrolidin-2-one], for which the pIC50 at human Cav2.2 is 5.18. Consider `O=C(CN1CCCC(c2ccccc2)(c2ccccc2)C1=O)N1CCC(c2ccc(F)cc2)CC1` [Example 244, 1-{2-[4-(4-fluorophenyl)piperidin-1-yl]-2-oxoethyl}-3,3-diphenylpiperidin-2-one], for which, at human Cav2.2, the negative logarithm of the IC50 (pIC50) was 5.43. `O=C(CN1CCCC(c2ccccc2)(c2ccccc2)C1=O)N1CCC(c2cccc(C(F)(F)F)c2)CC1` [Example 243, 1-(2-oxo-2-{4-[3-(trifluoromethyl)phenyl]piperidin-1-yl}ethyl)-3,3-diphenylpiperidin-2-one]: at human Cav2.2, the pIC50 is 5.36. The same measure, in the same setting: next, `O=C1N(CCCN2CCN(c3ncccn3)CC2)CCCC1(c1ccc(F)cc1)c1ccc(F)cc1` [Example 135, 3,3-bis(4-fluorophenyl)-1-[3-(4-pyrimidin-2-ylpiperazin-1-yl)propyl]piperidin-2-one]: 5.52; `O=C(CN1CCCC(c2ccccc2)(c2ccccc2)C1=O)N1CCC(c2ccc(C(F)(F)F)cc2)CC1` [Example 245, 1-(2-oxo-2-{4-[4-(trifluoromethyl)phenyl]piperidin-1-yl}ethyl)-3,3-diphenylpiperidin-2-one]: 5.35. Take `O=C(CN1CCC(c2ccccc2)(c2ccccc2)C1=O)Nc1ccc(Cl)cn1` [Example 5, N-(5-chloropyridin-2-yl)-2-(2-oxo-3,3-diphenylpyrrolidin-1-yl)acetamide]: the pIC50 on human Cav2.2 is 5.35. As to `CC(C)(C)OC(=O)N1CCN(CC(=O)N2CCN(C(c3ccccc3)c3ccccc3)CC2)C(=O)C1c1ccccc1` (stereo not drawn) [Example 101, tert-butyl 4-[2-(4-benzhydrylpiperazin-1-yl)-2-oxoethyl]-3-oxo-2-phenylpiperazine-1-carboxylate], the pIC50 on human Cav2.2 was 5.75.

As to `O=C(CN1CCCC(c2ccccc2)(c2ccccc2)C1=O)N1CCN(Cc2ccc(Cl)cc2Cl)CC1` [Example 169, 1-{2-[4-(2,4-dichlorobenzyl)piperazin-1-yl]-2-oxoethyl}-3,3-diphenylpiperidin-2-one], at human Cav2.2, the pIC50 was 5.74. `O=C(CN1CCC(c2ccc(F)cc2)(c2ccc(F)cc2)C1=O)NC1CN(Cc2ccccc2)C1` [Example 242, N-(1-benzylazetidin-3-yl)-2-[3,3-bis(4-fluorophenyl)-2-oxopyrrolidin-1-yl]acetamide]: the pIC50 at human Cav2.2 is 5.50. Take `O=C1N(Cc2nc(-c3ccc(Br)cc3)no2)CCC1(c1ccc(F)cc1)c1ccc(F)cc1` [Example 233, 1-{[3-(4-bromophenyl)-1,2,4-oxadiazol-5-yl]methyl}-3,3-bis(4-fluorophenyl)pyrrolidin-2-one]: at human Cav2.2, the pIC50 is 5.20. The same measure, in the same setting: next, `COc1ccc(C2(c3ccc(OC)cc3)CCCN(CCCN(C)CCCOc3cc(OC)cc(OC)c3)C2=O)cc1` [Example 116, 1-{3-[[3-(3,5-dimethoxyphenoxy)propyl](methyl)amino]propyl}-3,3-bis(4-methoxyphenyl)piperidin-2-one]: 5.70; `O=C(CN1CCCC(c2ccccc2)C1=O)N1CCN(C(c2ccc(F)cc2)c2ccc(F)cc2)CC1` (stereo not drawn) [Example 92, 1-(2-{4-[bis(4-fluorophenyl)methyl]piperazin-1-yl}-2-oxoethyl)-3-phenylpiperidin-2-one]: 6.00. Same read-out and setting: next, `O=C(CN1CCC(c2ccccc2)(c2ccccc2)C1=O)N1CCC(NCc2cccc(C(F)(F)F)c2)CC1` [Example 42, 1-[2-oxo-2-(4-{[3-(trifluoromethyl)benzyl]amino}piperidin-1-yl)ethyl]-3,3-diphenylpyrrolidin-2-one]: 5.95; `O=C(CN1CCCC(c2ccccc2)(c2ccccc2)C1=O)N1CCC(C(O)(c2ccc(F)cc2)c2ccc(F)cc2)CC1` [Example 272, 1-(2-{4-[bis(4-fluorophenyl)(hydroxy)methyl]piperidin-1-yl}-2-oxoethyl)-3,3-diphenylpiperidin-2-one]: 5.71.

Take `O=C(CN1CCC(c2ccccc2)(c2ccccc2)C1=O)N1CCN(Cc2cccc(C(F)(F)F)c2)C(=O)C1` [Example 29, 4-[(2-oxo-3,3-diphenylpyrrolidin-1-yl)acetyl]-1-[3-(trifluoromethyl)benzyl]piperazin-2-one]: the pIC50 at human Cav2.2 was 5.94. The same measure, in the same setting: next, `O=C(CN1CCCC(c2ccccc2)(c2ccccc2)C1=O)NC1CCN(Cc2cccc(C(F)(F)F)c2)CC1` [Example 200, 2-(2-oxo-3,3-diphenylpiperidin-1-yl)-N-{1-[3-(trifluoromethyl)benzyl]piperidin-4-yl}acetamide]: 6.00; `O=C1N(Cc2nc(Cc3ccc(Cl)cc3)no2)CCCC1(c1ccccc1)c1ccccc1` [Example 207, 1-{[3-(4-chlorobenzyl)-1,2,4-oxadiazol-5-yl]methyl}-3,3-diphenylpiperidin-2-one]: 5.30. As to `O=C1C(c2ccc(F)cc2)CCN1Cc1nc(-c2ccc(C(F)(F)F)nc2)no1` (stereo not drawn) [Example 238, 3-(4-fluorophenyl)-1-({3-[6-(trifluoromethyl)pyridin-3-yl]-1,2,4-oxadiazol-5-yl}methyl)pyrrolidin-2-one], the pIC50 on human Cav2.2 was 4.91. On the same count and under the same terms, next, `O=C(CN1CCCC(c2ccccc2)C1=O)N1CCc2ccc(C(F)(F)F)cc2C1` (stereo not drawn) [Example 96, 1-{2-oxo-2-[7-(trifluoromethyl)-3,4-dihydroisoquinolin-2(1H)-yl]ethyl}-3-phenylpiperidin-2-one]: 5.05. Same read-out and setting: next, `O=C1N(Cc2nc(-c3ccc4[nH]ncc4c3)no2)CCCC1(c1ccccc1)c1ccccc1` [Example 154, 1-{[3-(1H-indazol-5-yl)-1,2,4-oxadiazol-5-yl]methyl}-3,3-diphenylpiperidin-2-one]: 5.29.

One may read the pIC50 as −log10 of the IC50, conventionally taken in molar units. The inhibition in vivo is the change of the read-out against control, counted positive when it falls. A high value points to a strong effect.
